# Patent publication US11883435B2, “Compositions and methods for treating a clinical condition through the use of hematopoietic stem cells” (Indiana University Research and Technology Corporation, priority 2017, dated 2024)
# Columns and labels:
# mouse bone marrow HSCs = assay: Number of mouse bone marrow HSCs collected and processed with antioxidants or epigenetic inhibitors (flow cytometry); format: cell-based; conditions: collected in ambient air
# human cord blood HSC = conditions: ambient air (about 21% O2); cited from earlier work
# mouse bone marrow HSC = conditions: ambient air (about 21% O2); cited from earlier work
molecule,measurement,setting,value
"O=C1O[C@H]([C@@H](O)CO)C(O)=C1OP(=O)(O)O [AAP, ascorbic acid 2-phosphate]",increase in numbers of HSC,mouse bone marrow HSCs; AAP alone (0.22 mM),"not AAP alone, significantly increased"
"CC(=O)N[C@@H](CS)C(=O)O [NAC, N-Acetyl-Cysteine]",change in numbers of collected HSCs,mouse bone marrow HSCs; 1 mM NAC,no significant change
same,increase in numbers of collected HSCs,mouse bone marrow HSCs; higher dose of NAC (3 mM),no increase
cyclosporine A,numbers of HSC,human cord blood HSC,increased numbers of HSC
same,numbers of HSC,mouse bone marrow HSC,increased numbers of HSC
